Test results reported in patent US8258116B2, “Combination therapy for the treatment of HCV infection” (Vertex Pharmaceuticals Incorporated, priority 2007, dated 2012).

How the values were obtained:
[1] = tested on: HCV replicon Wild Type (mADE); assay: 2-Day HCV Replicon IC50 Assay, wild type replicon; type: cell-based; settings: Wild Type replicon
Protocol: (§1) Huh-7 cells were propagated in Dulbecco's modified Eagle's medium (DMEM, JRH Biosciences, Lenexa, Kans.) supplemented with 10% heat-inactivated FBS (fetal bovine serum), 2 mM L-glutamine, and nonessential amino acids (JRH). The cells were transfected with an in vitro transcribed HCV replicon RNA identical to replicon 1377neo/NS3-3′/wt as described by Lohmann et al. (1999). Stable cell clones were selected and maintained in the presence of 250 μg/mL G418 (Invitrogen, Carlsbad, Calif.). […] The HCV NS3 protease variant replicons were constructed in the background of the mADE wild-type replicon as described previously [Chao Lin et al., “In Vitro Resistance Studies of Hepatitis C Virus Serine Protease Inhibitors, VX-950 and BILN 2061: Structural Analysis Indicates Different Resistance Mechanisms,” Journal of Biological Chemistry, 279(17); pp. 17508-17514 (2004)]. The replicon cells were propagated in DMEM supplemented with 10% FBS, 2 mM L-glutamine, nonessential amino acids, and 250 μg/mL G418. The cells were split twice per week in fresh media upon reaching confluence. There are approximately 200-300 copies of HCV RNA per 24-2 replicon cell.
(§2) HCV replicon RNA from cells was measured using the Quantigene Discover XL kit (Panomics Inc., Fremont Calif.) as per the manufacturer's instructions. Briefly, compound-treated replicon cells were lysed and immobilized on to capture plates using HCV specific oligonucleotides (designed based on the 5′ UTR region of HCV 1b genome sequence AJ238799 in the GenBank database) over night and the relative amounts of captured RNA was measured using oligonucleotide probe sets as per the manufacturer's instructions.
(§3) On the day prior to the assay, 10,000 replicon cells were plated per well of a 96-well plate and allowed to attach and grow overnight in DMEM (Invitrogen, Carlsbad, Calif.) supplemented with 10% heat-inactivated FBS (JRH Biosciences, Lenexa, Kans.), 2 mM L-glutamine (Invitrogen), nonessential amino acids (Invitrogen) and 250 μg/ml G418 (Invitrogen). Next day, the medium was removed and antiviral agents that were serially diluted in DMEM containing 2% FBS and 0.5% DMSO (Sigma Chemical Co., St. Louis, Mo.) without G418, was added. The replicon cells were incubated with the antiviral agents for 48 h. HCV replicon RNA from cells was measured using the Quantigene Discover XL kit (Panomics Inc., Fremont Calif.) as per the manufacturer's instructions. Briefly, compound-treated replicon cells were lysed and immobilized onto capture plates using HCV specific oligonucleotides overnight and the relative amounts of captured RNA was measured using oligonucleotide probe sets as per the manufacturer's instructions. Unless indicated otherwise, each data point represents the average of three replicates. The IC50 is the concentration of the compound at which the HCV replicon RNA level in cells is reduced by 50% as compared to the untreated replicon cell controls. To monitor the effect of compounds on cell proliferation or cell viability, replicon cells were treated with serially diluted compounds for 48 h, after which cell viability was determined using a CellTiter Glo assay (Promega, Madison, Wis.). Each CC50 is derived from at least two replicates and is the concentration of the compound at which the number of viable cells is reduced by 50% as compared to untreated cell controls. The IC50 and CC50 was determined using 4-parameter curve fitting in the SoftMax Pro program (Molecular Devices, Sunnyvale, Calif.).
(§4) The sensitivity of NS3 protease variants to ribavirin and interferon was assessed in a 2-Day HCV Replicon IC50 Assay.

[2] = tested on: HCV NS3 protease variant replicon A156V; assay: 2-Day HCV Replicon IC50 Assay, A156V; type: cell-based
Protocol: as §1, §2, §3, §4

HCV genotype 1 = assay: phase 1b trial (Study VX04-950-101); type: in vivo; settings: subjects infected with HCV genotype 1, phase 1b
From the text: The degree to which a subject responds to treatment and the rate at which viral rebound is observed could in part be due to genotypic differences in sensitivity to the protease inhibitor. The rapid replication rate of HCV, along with the poor fidelity of its polymerase, gives rise to an accumulation of mutations throughout its genome [P. Simmonds, “Genetic diversity and evolution of hepatitis C virus—15 years on,” J. Gen. Virol., 85, pp. 3173-88 (2004)]. The degree to which sequence variability in the protease region affects the catalytic efficiency of the enzyme or the binding of an inhibitor is not known. Additionally, the generation of numerous viral genomes with remarkable sequence variation presents potential problems of emerging drug resistant virus in subjects treated with antiviral therapy. Indeed, drug resistance against antiviral drugs, such as HIV protease inhibitors, is well documented [Johnson et al., Top. HIV Med., 12, pp. 119-24 (2004)]. […] Agents Chemother., 48, pp. 2260-6 (2004); Trozzi et al., “In vitro selection and characterization of hepatitis C virus serine protease variants resistant to an active-site peptide inhibitor,” J. Virol. 77, pp. 3669-79 (2003)]. […]

## CCC[C@H](NC(=O)[C@@H]1[C@H]2CCC[C@H]2CN1C(=O)[C@@H](NC(=O)[C@@H](NC(=O)c1cnccn1)C1CCCCC1)C(C)(C)C)C(=O)C(=O)NC1CC1 [VX-950]
[1]; Hepatitis C virus, Table 8, read-out: Avg. IC50 ± STDEV
  IC50: 460 ± 101 nM
[1]; ratio of IC50 to Wild type IC50 for the same inhibitor
  Fold Change: 1 ± 0.2
[2]; A156V, ratio of mutant IC50 to Wild type IC50 for the same inhibitor
  Fold Change: >65.2
[2]; Hepatitis C virus, read-out: Avg. IC50 ± STDEV
  IC50: > 30000 nM
HCV genotype 1
  antiviral activity: substantial antiviral activity
